Experimental data taken from the supplement of paper PMC10307832.

Tests used:
Experiment in all cases: relative viability (nuclei count vs DMSO), 5 days (fraction); higher = more cells survive
RAF265 + Trametinib = compound: Cn1c(Nc2ccc(C(F)(F)F)cc2)nc2cc(Oc3ccnc(-c4ncc(C(F)(F)F)[nH]4)c3)ccc21 [RAF265] + CC(=O)Nc1cccc(-n2c(=O)n(C3CC3)c(=O)c3c(Nc4ccc(I)cc4F)n(C)c(=O)c(C)c32)c1 [Trametinib] (partner 0.02 µM)
In short: (§1)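 Nuclei were stained with Hoechst during a one-step fixation (final 0.05% Triton X-100, 1% formaldehyde, 1 ug/ml Hoechst) carried out 5 days after dosing, then counted on 4× images. The cells, lung cancer lines in 1536-well plates, had been dosed by pin tool the day after seeding with one drug alone or a fixed anchor-drug dose plus five library-drug doses (not always all listed) in √10 steps. Relative viability is the nuclei count in treated wells divided by that in vehicle wells, and each value is the median of duplicate plates.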

IPA-3 + Olaparib = compound: C1=CC=C2C(=C1)C=CC(=C2SSC3=C(C=CC4=CC=CC=C43)O)O [IPA-3] + O=C(c1cc(Cc2n[nH]c(=O)c3ccccc23)ccc1F)N1CCN(C(=O)C2CC2)CC1 [Olaparib] (partner 8 µM)
In short: as §1

Doramapimod + Pictilisib = compound: Cc1ccc(-n2nc(C(C)(C)C)cc2NC(=O)Nc2ccc(OCCN3CCOCC3)c3ccccc23)cc1 [Doramapimod] + CS(=O)(=O)N1CCN(Cc2cc3nc(-c4cccc5[nH]ncc45)nc(N4CCOCC4)c3s2)CC1 [Pictilisib] (partner 1 µM)
In short: as §1

Doramapimod + Pemetrexed = compound: Cc1ccc(-n2nc(C(C)(C)C)cc2NC(=O)Nc2ccc(OCCN3CCOCC3)c3ccccc23)cc1 [Doramapimod] + Nc1nc2[nH]cc(CCc3ccc(C(=O)N[C@@H](CCC(=O)O)C(=O)O)cc3)c2c(=O)[nH]1 [Pemetrexed] (partner 0.2 µM)
In short: as §1

Cell Line | relative viability (RAF265 + Trametinib; first compound 0.01 µM) | relative viability (RAF265 + Trametinib; first compound 0.03162 µM) | relative viability (RAF265 + Trametinib; first compound 0.1 µM) | relative viability (RAF265 + Trametinib; first compound 0.3162 µM) | relative viability (RAF265 + Trametinib; first compound 1 µM) | relative viability (IPA-3 + Olaparib; first compound 0.2 µM) | relative viability (IPA-3 + Olaparib; first compound 0.6325 µM) | relative viability (IPA-3 + Olaparib; first compound 2 µM) | relative viability (IPA-3 + Olaparib; first compound 6.325 µM) | relative viability (IPA-3 + Olaparib; first compound 20 µM) | relative viability (Doramapimod + Pictilisib; first compound 0.02 µM) | relative viability (Doramapimod + Pictilisib; first compound 0.06325 µM) | relative viability (Doramapimod + Pictilisib; first compound 0.2 µM) | relative viability (Doramapimod + Pictilisib; first compound 0.6325 µM) | relative viability (Doramapimod + Pictilisib; first compound 2 µM) | relative viability (Doramapimod + Pemetrexed; first compound 0.02 µM) | relative viability (Doramapimod + Pemetrexed; first compound 0.06325 µM) | relative viability (Doramapimod + Pemetrexed; first compound 0.2 µM) | relative viability (Doramapimod + Pemetrexed; first compound 0.6325 µM) | relative viability (Doramapimod + Pemetrexed; first compound 2 µM)
NCI-H647 | 0.46 | 0.451 | 0.277 | 0.222 | 0.19 | 0.725 | 0.496 | 0.59 | 0.196 | 0.0974 | 0.434 | 0.509 | 0.428 | 0.664 | 0.406 | 0.195 | 0.138 | 0.15 | 0.168 | 0.152
LXF-289 | 0.667 | 0.692 | 0.551 | 0.488 | 0.339 | 1.22 | 1 | 1.09 | 1.07 | 1.23 | 0.776 | 0.76 | 0.695 | 0.716 | 0.662 | 0.959 | 0.914 | 0.83 | 0.863 | 0.971
LOU-NH91 | 0.837 | 0.756 | 0.717 | 0.71 | 0.636 | 0.953 | 0.911 | 0.965 | 0.896 | 1.03 | 0.582 | 0.524 | 0.493 | 0.524 | 0.406 | 0.388 | 0.396 | 0.355 | 0.379 | 0.395
NCI-H23 | 0.404 | 0.262 | 0.239 | 0.239 | 0.17 | 0.196 | 0.277 | 0.379 | 0.323 | 0.187 | 0.435 | 0.438 | 0.374 | 0.509 | 0.484 | 0.607 | 0.749 | 0.679 | 0.703 | 0.533
NCI-H1993 | 0.585 | 0.619 | 0.542 | 0.384 | 0.435 | 1.22 | 1.08 | 0.995 | 1.23 | 1.08 | 0.85 | 0.97 | 0.825 | 0.728 | 0.906 | 0.627 | 0.517 | 0.504 | 0.658 | 0.558
HCC-827 | 0.592 | 0.483 | 0.544 | – | 0.362 | 0.818 | 0.579 | 0.557 | 0.737 | 0.638 | 1.15 | 0.972 | 1.06 | 0.933 | 0.738 | 0.238 | 0.253 | 0.254 | 0.242 | 0.199
NCI-H650 | 1.05 | 0.972 | 1.05 | 0.569 | 0.328 | 0.473 | 0.391 | 0.387 | 0.379 | 0.381 | 0.887 | 0.818 | 0.984 | 0.982 | 0.859 | 0.741 | 0.938 | 0.976 | 1.06 | 0.9
CAL-12T | 0.334 | 0.296 | 0.273 | 0.209 | 0.333 | 0.749 | 0.693 | 0.72 | 0.668 | 0.678 | 0.456 | 0.378 | 0.463 | 0.33 | 0.392 | 1.02 | 1.08 | 1.25 | 1.22 | 0.947
